Test results as given in patent EP4755891A1, “ARF1 INHIBITOR AND USE THEREOF” (AOBIO PHARMACEUTICAL CO., LTD., priority 2023, dated 2025).

What was measured:
CCL5 = assay: Upregulation of chemokine CCL5 expression (quantitative RT-PCR); format: cell-based, Murine; conditions: CT26 cells; FIG. 5
Procedure: In this example, the upregulation of chemokine CCL5 expression induced by the treatment of Compounds 3 and 9 synthesized in the above preparation examples was tested. Quantitative RT-PCR was used to measure the expression level of chemokine CCL5 in CT26 cells treated with DMSO, Compound 3, or Compound 9.

NF-κB signaling pathway = assay: Activation of NF-κB signaling pathway (phosphorylated P65, Western blot); format: cell-based, Murine; conditions: CT26 cells; FIG. 6
Procedure: In this example, Compounds 3 and 9 synthesized in the above preparation examples were tested for their ability to activate the NF-κB signaling pathway, as indicated by an increase of phosphorylated P65. GCA, a known Arf1 inhibitor, was used as a positive control.
In CT26 cells treated with DMSO, GCA, Compound 3, or Compound 9, the relevant protein levels were evaluated by Western blot analysis as previously described (Wang et al., 2020).

B16-F10 melanoma = assay: Inhibition of B16-F10 melanoma in C57B/6 mice; format: in vivo; conditions: 5 mg/kg, oral, two consecutive weeks
Procedure: In this example, the inhibitory effect of Compound 9 synthesized in the above preparation example on melanoma tumor growth was tested.
Murine B16-F10 cells were inoculated at a dose of 5×10^5 cells per mouse into the left abdomen of 6-week-old male mice. Approximately 7 days later, the mice were treated orally with ddH2O or the novel Arf1 inhibitor for two consecutive weeks. The mice were randomly divided into three groups: the control group, the Compound 9 treatment group, and the DU102 treatment group. The mice were administered ddH2O, 5 mg/kg of Compound 9 (dissolved in ddH2O), or 5 mg/kg of DU102 (dissolved in a solvent composed of 5% DMSO + 95% corn oil, as a positive control) for two consecutive weeks. Tumor diameters were measured every 2-3 days using a digital caliper (ULINE, Cat^# H-7352), and the tumor volume was calculated using the formula ½ × longitudinal diameter (length) × maximum transverse diameter (width). When the maximum tumor volume reached 2000 mm^3, the mice were euthanized.

[1] = Plasma stability, mouse plasma; format: in vitro ADME; conditions: 2.0 µM, 37°C
Procedure: (§1) At 37°C, 2.0 µM of the compound was co-incubated with plasma samples from five species (mouse, rat, dog, cynomolgus monkey, human) for 120 minutes. The concentration of the compound in the samples was detected by the liquid chromatography-tandem mass spectrometry (LC-MS/MS) method, and the half-life (T1/2) was calculated.

[2] = Plasma stability, rat plasma; format: in vitro ADME; conditions: 37°C; for remaining amount in plasma: rat plasma, 2.0 µM
Procedure: as §1

Cc1csc2ncnc(Nc3ccc4c(c3)ncn4C)c12 [Compound 9, 5-Methyl-N-(1-methyl-1H-benzo[d]imidazol-5-yl)thieno[2,3-d]pyrimidin-4-amine]
expression of the chemokine CCL5 (CCL5): effectively promote the expression | phosphorylation level of P65 (NF-κB signaling pathway): increase the phosphorylation level of P65 | B16-F10 melanoma growth (B16-F10 melanoma; FIG. 8): effectively inhibit B16-F10 melanoma growth | size of murine melanoma tumors (B16-F10 melanoma; FIG. 8A): significantly inhibited the size of murine melanoma tumors | weight of murine melanoma tumors (B16-F10 melanoma; FIG. 8B): significantly reduced the weight of murine melanoma tumors | remaining amount in plasma ([1]; time point 0 min): 100.0% | remaining amount in plasma ([1]; time point 10 min): 99.3% | remaining amount in plasma ([1]; time point 30 min): 98.6% | remaining amount in plasma ([1]; time point 60 min): 104.1% | remaining amount in plasma ([1]; time point 120 min): 96.5% | half-life at 2 µM ([2]; plasma, printed in the Rat row): > 4.82 h | remaining amount in plasma ([2]; time point 0 min): 100.0% | remaining amount in plasma ([2]; time point 10 min): 102.1% | remaining amount in plasma ([2]; time point 30 min): 93.5% | remaining amount in plasma ([2]; time point 60 min): 99.3% | remaining amount in plasma ([2]; time point 120 min): 93.2%
